{"source": "patent US20170105949A1", "about": "“METHOD FOR IMPROVING FEED EFFICIENCY IN RUMINANTS” (Rivalea (Australia) Pty Ltd, priority 2014, published 2017)", "key": {"[1]": {"assay": "Body composition of lambs by dual energy x-ray absorptiometry (DXA) scanning", "format": "in vivo, lambs (Border Leister x Merino)", "text": "(§1) A total of 36 male lambs (Border Leister x Merino) were selected at approximately 14 weeks of age and housed in pens of two lambs per pen in a naturally ventilated shed. Lambs were fed a commercial lamb finisher diet for a 14 day acclimatisation period prior to the start of the test period. In addition, all lambs were offered 250 g lucerne hay per day as roughage. At the start of the test period, lambs were individually weighed (average weight 29.8 kg±0.29 kg), ear tagged and the pen randomly allocated to one of three dietary treatments:\n(§2) A: Control (no RAC or Caffeine for the entire 56 day test period)\n(§3) B: RAC (20 ppm (20 g/t) RAC for the entire 56 day test period)\n(§4) C: RAC +Caffeine (20 ppm (20 g/t)) RAC offered from day 0 to day 21, followed by 20 ppm (20 g/t) RAC plus 0.5 kg/t caffeine offered from day 21 to day 56).\n(§5) Diets were pelleted and fed ad libitum for the entire test period, while water was also freely available at all times. In addition to the pelleted test feeds, each lamb was offered 200 g lucerne hay per day (floor fed) as an additional source of roughage.\nDual energy x-ray absorptiometry (DXA) scanning was undertaken using a Hologic X-Ray Bone Densitometer (Hologic Inc, Waltham, Mass., USA) at day 21 and day 56 of the test period. All lambs were weighed on the day of scanning (prior to anaesthesia). Lambs were sedated using xylazine (administered intramuscularly) and anaesthetised with ketamine intra venously under veterinary direction. Once anaesthetised, lambs were positioned in a ventral recumbency with their hind legs extended and forelegs positioned caudally to accommodate the DXA regional analysis software. The whole body scan mode was used for each animal, with the length of the scan adjusted for the length of the lamb. Following DXA analysis, lambs were monitored by a veterinarian for full recovery from anaesthesia. As the DXA software generates body composition estimates for humans, the raw DXA output from each scan was adjusted for lambs using equations developed by comparisons with actual empty body chemical composition (Hunter 2000).\n(§6) Data were subjected to an analysis of variance (ANOVA) for the main effect of dietary treatment. Data for treatments B and C were pooled for the initial 21 day feeding period as both treatment groups were fed the same diet during this time period. The experimental unit for all analyses was the pen of ruminant. All analyses were performed using Genstat 16th Edition (Payne RW, Harding SA, Genstat Committee 2005 Genstat release 8 reference manual, USN International: Oxford UK)."}, "[2]": {"assay": "Growth performance and feed efficiency of lambs fed pelleted test diets ad libitum (live weight, feed intake by disappearance)", "format": "in vivo, lambs (Border Leister x Merino)", "text": "Lambs were used in this study as the model animal representing ruminants. Previous research has shown similar growth performance, feed efficiency and carcass benefits from the inclusion of Ractopamine in cattle and lamb diets. Given this, it is expected that the outcomes from feeding RAC and caffeine in combination to finishing lambs can be translated to expected results in other ruminants such as cattle. The surprising results found in lambs show promise for use of RAC and caffeine in other ruminants, particularly cattle where RAC is an approved animal feed additive.\nas §1, §2, §3, §4, §5\nLambs were shorn prior to entry to the facility to minimise the impact of wool growth on rate of gain measurements and body composition analysis. Individual weights were recorded periodically throughout the test period (Days 0, 21, 35 and 56), while intake of the pelleted test diets was measured by feed disappearance and feed efficiency subsequently calculated.\nNo attempt was made to measure feed residues of the lucerne hay as the lambs consumed this rapidly and the volume of wastage was considered insignificant.\nas §6"}, "[3]": {"settings": "DXA, RAC 20 ppm day 0-56, RAC + Caffeine: caffeine 0.5 kg/t added day 21-56, live weight day 56 as covariate"}, "[4]": {"settings": "DXA, RAC treatment groups pooled, 20 ppm RAC day 0-21"}, "[5]": {"settings": "DXA, both groups 20 ppm RAC day 0-21, live weight day 21 as covariate"}, "[6]": {"settings": "RAC 20 ppm, RAC + Caffeine: 20 ppm RAC plus 0.5 kg/t caffeine from day 21"}, "[7]": {"settings": "RAC 20 ppm throughout, RAC + Caffeine: 0.5 kg/t caffeine added from day 21, day 0 weight as covariate"}, "[8]": {"settings": "day 0 to day 21, 20 ppm RAC in diet, treatments B and C pooled"}, "[9]": {"settings": "entire test period, RAC 20 ppm, RAC + Caffeine: caffeine 0.5 kg/t added day 21-56"}}, "note": "Structures can show the parent of a compound that is named as a salt.", "data": [{"compound": "CC(CCc1ccc(O)cc1)NCC(O)c1ccc(O)cc1", "note": "(racemic) [RAC, Ractopamine hydrochloride]", "values": [{"measurement": "Adipose tissue (%) Day 56", "setting": "[1]; [3]", "result": 22.90, "unit": "%"}, {"measurement": "Bone mineral content (%) Day 56", "setting": "[1]; [3]", "result": 3.01, "unit": "%"}, {"measurement": "Lean tissue (%) Day 56", "setting": "[1]; [3]", "result": 72.64, "unit": "%"}, {"measurement": "adipose tissue at day 21, pooled data", "setting": "[1]; [4]", "result": 19.24, "unit": "%"}, {"measurement": "percentage of lean tissue at day 21, pooled data", "setting": "[1]; [4]", "result": 76.83, "unit": "%"}, {"measurement": "Adipose tissue (%) Day 21", "setting": "[1]; [5]", "result": 19.18, "unit": "%"}, {"measurement": "Bone mineral content (%) Day 21", "setting": "[1]; [5]", "result": 2.95, "unit": "%"}, {"measurement": "Lean tissue (%) Day 21", "setting": "[1]; [5]", "result": 76.84, "unit": "%"}, {"measurement": "Feed efficiency for lean tissue deposition (kg lean tissue gain: kg feed intake) Day 21-56", "setting": "[1]; [6]", "result": "0.073 kg lean tissue gain: kg feed intake"}, {"measurement": "Live weight day 21", "setting": "[2]; 20 ppm RAC in diet day 0-21, treatments B and C pooled, day 0 weight as covariate", "result": 37.9, "unit": "kg"}, {"measurement": "Live weight Day 35", "setting": "[2]; [7]", "result": 43.6, "unit": "kg"}, {"measurement": "Live weight Day 56", "setting": "[2]; [7]", "result": 47.3, "unit": "kg"}, {"measurement": "ADFI Day 21-35", "setting": "[2]; [6]", "result": 1.77, "unit": "kg/day"}, {"measurement": "ADFI Day 21-56", "setting": "[2]; [6]", "result": 1.82, "unit": "kg/day"}, {"measurement": "ADFI Day 35-56", "setting": "[2]; [6]", "result": 1.77, "unit": "kg/day"}, {"measurement": "ADG Day 21-35", "setting": "[2]; [6]", "result": 0.380, "unit": "kg/day"}, {"measurement": "ADG Day 21-56", "setting": "[2]; [6]", "result": 0.266, "unit": "kg/day"}, {"measurement": "ADG Day 35-56", "setting": "[2]; [6]", "result": 0.177, "unit": "kg/day"}, {"measurement": "FCE Day 21-35", "setting": "[2]; [6]", "result": 0.214, "unit": "gain/feed"}, {"measurement": "FCE Day 21-56", "setting": "[2]; [6]", "result": 0.144, "unit": "gain/feed"}, {"measurement": "FCE Day 35-56", "setting": "[2]; [6]", "result": 0.113, "unit": "gain/feed"}, {"measurement": "ADFI", "setting": "[2]; [8]", "result": 1.40, "unit": "kg/day"}, {"measurement": "ADG", "setting": "[2]; [8]", "result": 0.388, "unit": "kg/day"}, {"measurement": "FCE (gain/feed)", "setting": "[2]; [8]", "result": 0.28, "unit": "gain/feed"}, {"measurement": "ADFI Day 0-56", "setting": "[2]; [9]", "result": 1.67, "unit": "kg/day"}, {"measurement": "ADG Day 0-56", "setting": "[2]; [9]", "result": 0.317, "unit": "kg/day"}, {"measurement": "FCE Day 0-56", "setting": "[2]; [9]", "result": 0.189, "unit": "gain/feed"}, {"measurement": "Live weight Day 21", "setting": "[2]; three treatments, both groups 20 ppm RAC day 0-21, day 0 weight as covariate", "result": 38.2, "unit": "kg"}]}]}
